Data taken from patent US11040981B2, “Pyrrolotriazine compounds and methods of inhibiting TAM kinases” (Syros Pharmaceuticals, Inc., priority 2017, dated 2021).

Tests used:
[1] = target: T1, MERTK (Homo sapiens, UniProt Q12866); assay: TR-FRET kinase activity assay, MERTK; assay type: biochemical; conditions: for IC50: TR-FRET activity assay, ATP at Km, 60 minutes, read-out: Mer IC50; for FLT3/Mer ratio (FLT3 IC50/Mer IC50): ratio of Mer to FLT3: FLT3 IC50/Mer IC50
T1 sequence (Q12866 21-999): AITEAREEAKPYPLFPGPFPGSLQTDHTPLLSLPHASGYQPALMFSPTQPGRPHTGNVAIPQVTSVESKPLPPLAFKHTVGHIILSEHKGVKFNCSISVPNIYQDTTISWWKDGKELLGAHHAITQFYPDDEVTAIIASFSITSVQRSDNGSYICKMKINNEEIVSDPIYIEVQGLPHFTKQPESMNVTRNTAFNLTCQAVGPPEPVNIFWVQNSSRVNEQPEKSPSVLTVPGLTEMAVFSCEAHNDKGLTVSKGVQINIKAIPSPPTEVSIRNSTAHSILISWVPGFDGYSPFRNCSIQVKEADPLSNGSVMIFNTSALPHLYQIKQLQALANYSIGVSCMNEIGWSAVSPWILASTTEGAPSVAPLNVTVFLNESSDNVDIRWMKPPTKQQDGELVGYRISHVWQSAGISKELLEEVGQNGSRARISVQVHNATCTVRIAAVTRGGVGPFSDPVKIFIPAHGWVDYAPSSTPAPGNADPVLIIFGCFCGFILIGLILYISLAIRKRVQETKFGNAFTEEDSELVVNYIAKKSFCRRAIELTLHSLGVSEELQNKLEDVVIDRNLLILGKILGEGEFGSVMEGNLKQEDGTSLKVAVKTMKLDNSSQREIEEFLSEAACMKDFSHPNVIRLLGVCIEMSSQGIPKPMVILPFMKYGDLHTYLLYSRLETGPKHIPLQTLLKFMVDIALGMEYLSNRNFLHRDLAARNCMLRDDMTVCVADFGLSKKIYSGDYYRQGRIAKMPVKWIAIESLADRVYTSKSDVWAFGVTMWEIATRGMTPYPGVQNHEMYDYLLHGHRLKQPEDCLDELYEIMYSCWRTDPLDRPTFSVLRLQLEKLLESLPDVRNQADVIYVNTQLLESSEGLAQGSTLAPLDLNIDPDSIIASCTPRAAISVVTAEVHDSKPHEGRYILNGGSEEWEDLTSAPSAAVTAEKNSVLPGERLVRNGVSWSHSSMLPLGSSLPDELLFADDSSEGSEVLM
Method in brief: (§1)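 Enzyme, fluorescent peptide substrate and compound were mixed, and the reaction was started with ATP at each kinase's Km, in 50 mM HEPES pH 7.5, 10 mM MgCl2, 1 mM EGTA, 0.01% Brij 35, 1 mM DTT at RT. After 60 minutes EDTA quench, Eu-labelled phospho-specific antibody was added for 30 minutes, and IC50 was derived from TR-FRET signal loss.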

[2] = target: T2, FLT3 (Homo sapiens, UniProt P36888); assay: TR-FRET kinase activity assay, FLT3; assay type: biochemical; conditions: ATP at Km, 60 minutes
T2 sequence (P36888 27-993): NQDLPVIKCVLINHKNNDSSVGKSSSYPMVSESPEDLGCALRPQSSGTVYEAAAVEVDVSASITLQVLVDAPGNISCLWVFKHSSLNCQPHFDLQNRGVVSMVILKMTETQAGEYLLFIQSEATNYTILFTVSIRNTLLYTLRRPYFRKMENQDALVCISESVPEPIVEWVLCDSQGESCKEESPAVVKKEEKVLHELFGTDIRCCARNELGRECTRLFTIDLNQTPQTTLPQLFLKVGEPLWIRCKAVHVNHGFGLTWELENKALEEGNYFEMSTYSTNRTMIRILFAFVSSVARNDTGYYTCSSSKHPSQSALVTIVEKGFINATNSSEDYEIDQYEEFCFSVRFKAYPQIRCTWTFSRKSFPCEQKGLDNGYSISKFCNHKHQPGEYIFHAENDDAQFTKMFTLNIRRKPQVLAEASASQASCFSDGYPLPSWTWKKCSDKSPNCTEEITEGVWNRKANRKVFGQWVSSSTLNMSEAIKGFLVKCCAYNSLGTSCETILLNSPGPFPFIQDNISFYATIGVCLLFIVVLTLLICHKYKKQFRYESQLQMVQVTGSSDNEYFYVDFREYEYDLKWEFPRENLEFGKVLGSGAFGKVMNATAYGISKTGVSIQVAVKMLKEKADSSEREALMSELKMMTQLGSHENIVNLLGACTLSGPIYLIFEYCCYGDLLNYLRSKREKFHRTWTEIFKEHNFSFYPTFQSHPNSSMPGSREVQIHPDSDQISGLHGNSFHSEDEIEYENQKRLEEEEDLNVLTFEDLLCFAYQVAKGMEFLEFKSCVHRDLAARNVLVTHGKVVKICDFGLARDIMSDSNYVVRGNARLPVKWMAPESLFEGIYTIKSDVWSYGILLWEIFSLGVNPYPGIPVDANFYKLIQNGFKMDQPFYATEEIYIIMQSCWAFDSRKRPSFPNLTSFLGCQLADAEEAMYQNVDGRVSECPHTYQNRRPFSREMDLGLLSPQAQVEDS
Method in brief: as §1

| IC50 [1] | FLT3/Mer ratio (FLT3 IC50/Mer IC50) [1] | IC50 [2] | SMILES |
| --- | --- | --- | --- |
| ≤ 100 nM | +++ (“+++” represents a ratio of >100) | 1000 to 10000 nM | COC[C@H](C)Nc1ncc2c(-c3cnn(C(C)(C)CO)c3)cc([C@H]3CC[C@H](O)CC3)n2n1 [Compound 265] |
| ≤ 100 nM | +++ (“+++” represents a ratio of >100) | 100 to 1000 nM | COC[C@H](C)Nc1ncc2c(-c3cnn(CC4(C#N)CC4)c3)cc([C@H]3CC[C@H](O)CC3)n2n1 [Compound 266] |
| ≤ 100 nM | +++ (“+++” represents a ratio of >100) | 1000 to 10000 nM | COC[C@H](C)Nc1ncc2c(-c3cnnc(C)c3)cc([C@H]3CC[C@H](O)CC3)n2n1 [Compound 267] |
| ≤ 100 nM | +++ (“+++” represents a ratio of >100) | 100 to 1000 nM | Cc1cc(-c2cc([C@H]3CC[C@H](O)CC3)n3nc(N[C@@H](C)CC(F)(F)F)ncc23)cnn1 [Compound 268] |
| ≤ 100 nM | +++ (“+++” represents a ratio of >100) | ≤ 100 nM | C[C@@H](COC(F)F)Nc1ncc2c(-c3cnn(C4COC4)c3)cc([C@H]3CC[C@H](O)CC3)n2n1 [Compound 270] |

| SMILES | IC50 [1] | FLT3/Mer ratio (FLT3 IC50/Mer IC50) [1] | IC50 [2] |
| --- | --- | --- | --- |
| C[C@@H](CC(F)(F)F)Nc1ncc2c(-c3cnn(C4COC4)c3)cc([C@H]3CC[C@H](O)CC3)n2n1 [Compound 269] | ≤ 100 nM | ++ (“++” represents a ratio of between 10 and 100) | ≤ 100 nM |
| COC[C@H](C)Nc1ncc2c(-c3ccc(N4CCN(C)CC4)nc3)cc([C@H]3CC[C@H](O)CC3)n2n1 [Compound 271] | ≤ 100 nM | ++ (“++” represents a ratio of between 10 and 100) | ≤ 100 nM |
